ChEMBL document CHEMBL4219213, “The design, synthesis and structure-activity relationships associated with C28 amine-based betulinic acid derivatives as inhibitors of HIV-1 maturation” (Bioorg Med Chem Lett, 2018)

How the values were obtained:
in vitro [1] = conditions: mouse, liver microsomes
Description: Half life in mouse liver microsomes at 0.5 uM in presence of NADPH by LC-MS/MS method

in vitro [2] = conditions: human, MT2 cells
Description: Cytotoxicity against human MT2 cells

cells = conditions: Human immunodeficiency virus 1, subtype B NL4-3, MT2
in vitro [3] = conditions: human, liver microsomes
Description: Half life in human liver microsomes at 0.5 uM in presence of NADPH by LC-MS/MS method

in vitro [4] = conditions: rat, liver microsomes
Description: Half life in rat liver microsomes at 0.5 uM in presence of NADPH by LC-MS/MS method

in vivo [5] = conditions: Sprague-Dawley, rat, po, 5 mg/kg
[6] = Dissociation constant, pKa of the compound; assay type: physicochemical
in vivo [7] = conditions: Sprague-Dawley, rat, po, 5 mg/kg; remark: listed apart in the source

C=C(C)[C@@H]1CC[C@]2(CNCCCN)CC[C@]3(C)[C@H](CC[C@@H]4[C@@]5(C)CC=C(c6ccc(C(=O)O)cc6)C(C)(C)[C@@H]5CC[C@]43C)[C@@H]12
half-life at 0.5 µM (in vitro [1]): > 2 h | CC50 (in vitro [2]): 120 nM | IC50 (cells): 40 nM | half-life at 0.5 µM (in vitro [3]): > 2 h | half-life at 0.5 µM (in vitro [4]): > 2 h

C=C(C)[C@@H]1CC[C@]2(CNCCN(C(C)C)C(C)C)CC[C@]3(C)[C@H](CC[C@@H]4[C@@]5(C)CC=C(c6ccc(C(=O)O)cc6)C(C)(C)[C@@H]5CC[C@]43C)[C@@H]12
CC50 (in vitro [2]): 3700 nM | IC50 (cells): 35 nM

C=C(C)[C@@H]1CC[C@]2(CNCCCNCCO)CC[C@]3(C)[C@H](CC[C@@H]4[C@@]5(C)CC=C(c6ccc(C(=O)O)cc6)C(C)(C)[C@@H]5CC[C@]43C)[C@@H]12
CC50 (in vitro [2]): 320 nM | IC50 (cells): 18 nM | half-life at 0.5 µM (in vitro [3]): > 2 h | half-life at 0.5 µM (in vitro [4]): > 2 h

C=C(C)[C@@H]1CC[C@]2(CN(CCN(C)C)C(=O)CCC(=O)O)CC[C@]3(C)[C@H](CC[C@@H]4[C@@]5(C)CC=C(c6ccc(C(=O)O)cc6)C(C)(C)[C@@H]5CC[C@]43C)[C@@H]12
CC50 (in vitro [2]): 30000 nM | IC50 (cells): 650 nM | AUC(0-t) at 6 h (in vivo [5]): 4.39 µM·h

C=C(C)[C@@H]1CC[C@]2(CN(CCCN3CCS(=O)(=O)CC3)C3CC3)CC[C@]3(C)[C@H](CC[C@@H]4[C@@]5(C)CC=C(c6ccc(C(=O)O)cc6)C(C)(C)[C@@H]5CC[C@]43C)[C@@H]12
half-life at 0.5 µM (in vitro [1]): > 2 h | CC50 (in vitro [2]): 7000 nM | IC50 (cells): 43 nM | half-life at 0.5 µM (in vitro [3]): > 2 h | half-life at 0.5 µM (in vitro [4]): > 2 h

C=C(C)[C@@H]1CC[C@]2(CNCCN3CCC(F)(F)CC3)CC[C@]3(C)[C@H](CC[C@@H]4[C@@]5(C)CC=C(c6ccc(C(=O)O)cc6)C(C)(C)[C@@H]5CC[C@]43C)[C@@H]12
half-life at 0.5 µM (in vitro [1]): > 2 h | CC50 (in vitro [2]): 8500 nM | pKa [6]: 8.6 | IC50 (cells): 57 nM | half-life at 0.5 µM (in vitro [3]): > 2 h | half-life at 0.5 µM (in vitro [4]): > 2 h

C=C(C)[C@@H]1CC[C@]2(C(=O)O)CC[C@]3(C)[C@H](CC[C@@H]4[C@@]5(C)CC=C(c6ccc(C(=O)O)cc6)C(C)(C)[C@@H]5CC[C@]43C)[C@@H]12
half-life at 0.5 µM (in vitro [1]): > 2 h | IC50 (cells): > 6000 nM | half-life at 0.5 µM (in vitro [3]): > 2 h | half-life at 0.5 µM (in vitro [4]): > 2 h

C=C(C)[C@@H]1CC[C@]2(CNCCN3CCCCC3)CC[C@]3(C)[C@H](CC[C@@H]4[C@@]5(C)CC=C(c6ccc(C(=O)O)cc6)C(C)(C)[C@@H]5CC[C@]43C)[C@@H]12
CC50 (in vitro [2]): 4000 nM | IC50 (cells): 37 nM

C=C(C)[C@@H]1CC[C@]2(CN(C)CCCN3CCS(=O)(=O)CC3)CC[C@]3(C)[C@H](CC[C@@H]4[C@@]5(C)CC=C(c6ccc(C(=O)O)cc6)C(C)(C)[C@@H]5CC[C@]43C)[C@@H]12
half-life at 0.5 µM (in vitro [1]): > 2 h | CC50 (in vitro [2]): 10000 nM | IC50 (cells): 26 nM | half-life at 0.5 µM (in vitro [3]): > 2 h | AUC(0-t) at 6 h (in vivo [5]): 4.83 µM·h | half-life at 0.5 µM (in vitro [4]): > 2 h | AUC(0-t) at 24 h (in vivo [7]): 9.06 µM·h

C=C(C)[C@@H]1CC[C@]2(CNCCCN3CCCCC3)CC[C@]3(C)[C@H](CC[C@@H]4[C@@]5(C)CC=C(c6ccc(C(=O)O)cc6)C(C)(C)[C@@H]5CC[C@]43C)[C@@H]12
half-life at 0.5 µM (in vitro [1]): 1.5 h | CC50 (in vitro [2]): 240 nM | IC50 (cells): 6.4 nM | half-life at 0.5 µM (in vitro [3]): 1.32 h | half-life at 0.5 µM (in vitro [4]): 1.37 h

C=C(C)[C@@H]1CC[C@]2(CNC(=O)CNC)CC[C@]3(C)[C@H](CC[C@@H]4[C@@]5(C)CC=C(c6ccc(C(=O)O)cc6)C(C)(C)[C@@H]5CC[C@]43C)[C@@H]12
CC50 (in vitro [2]): 16000 nM | IC50 (cells): 27 nM | AUC(0-t) at 6 h (in vivo [5]): 0.54 µM·h

C=C(C)[C@@H]1CC[C@]2(CNCCN(CCO)CCO)CC[C@]3(C)[C@H](CC[C@@H]4[C@@]5(C)CC=C(c6ccc(C(=O)O)cc6)C(C)(C)[C@@H]5CC[C@]43C)[C@@H]12
CC50 (in vitro [2]): 6800 nM | IC50 (cells): 8.4 nM

C=C(C)[C@@H]1CC[C@]2(CNCCCN(C)C)CC[C@]3(C)[C@H](CC[C@@H]4[C@@]5(C)CC=C(c6ccc(C(=O)O)cc6)C(C)(C)[C@@H]5CC[C@]43C)[C@@H]12
CC50 (in vitro [2]): 4500 nM | IC50 (cells): 200 nM | AUC(0-t) at 6 h (in vivo [5]): 0.01 µM·h

C=C(C)[C@@H]1CC[C@]2(CNCCNCCO)CC[C@]3(C)[C@H](CC[C@@H]4[C@@]5(C)CC=C(c6ccc(C(=O)O)cc6)C(C)(C)[C@@H]5CC[C@]43C)[C@@H]12
CC50 (in vitro [2]): 2000 nM | IC50 (cells): 20 nM | half-life at 0.5 µM (in vitro [3]): > 2 h | half-life at 0.5 µM (in vitro [4]): 1.95 h

C=C(C)[C@@H]1CC[C@]2(CNCCCO)CC[C@]3(C)[C@H](CC[C@@H]4[C@@]5(C)CC=C(c6ccc(C(=O)O)cc6)C(C)(C)[C@@H]5CC[C@]43C)[C@@H]12
CC50 (in vitro [2]): 4600 nM | IC50 (cells): 55 nM | half-life at 0.5 µM (in vitro [3]): > 2 h | half-life at 0.5 µM (in vitro [4]): > 2 h

C=C(C)[C@@H]1CC[C@]2(CNCCCN3CCCC3=O)CC[C@]3(C)[C@H](CC[C@@H]4[C@@]5(C)CC=C(c6ccc(C(=O)O)cc6)C(C)(C)[C@@H]5CC[C@]43C)[C@@H]12
CC50 (in vitro [2]): 5800 nM | IC50 (cells): 9.9 nM | AUC(0-t) at 6 h (in vivo [5]): 1.04 µM·h

C=C(C)[C@@H]1CC[C@]2(CNCCNC(C)=O)CC[C@]3(C)[C@H](CC[C@@H]4[C@@]5(C)CC=C(c6ccc(C(=O)O)cc6)C(C)(C)[C@@H]5CC[C@]43C)[C@@H]12
CC50 (in vitro [2]): 6300 nM | IC50 (cells): 37 nM

C=C(C)[C@@H]1CC[C@]2(CNCCN3CCNCC3)CC[C@]3(C)[C@H](CC[C@@H]4[C@@]5(C)CC=C(c6ccc(C(=O)O)cc6)C(C)(C)[C@@H]5CC[C@]43C)[C@@H]12
CC50 (in vitro [2]): 2300 nM | half-life at 0.5 µM (in vitro [3]): > 2 h | half-life at 0.5 µM (in vitro [4]): 1.43 h

C=C(C)[C@@H]1CC[C@]2(CNCCN(C)C)CC[C@]3(C)[C@H](CC[C@@H]4[C@@]5(C)CC=C(c6ccc(C(=O)O)cc6)C(C)(C)[C@@H]5CC[C@]43C)[C@@H]12
half-life at 0.5 µM (in vitro [1]): > 2 h | CC50 (in vitro [2]): 1200 nM | IC50 (cells): 21 nM | half-life at 0.5 µM (in vitro [3]): > 2 h | half-life at 0.5 µM (in vitro [4]): > 2 h | AUC(0-t) at 24 h (in vivo [7]): 1.28 µM·h

C=C(C)[C@@H]1CC[C@]2(CNCCc3ccccn3)CC[C@]3(C)[C@H](CC[C@@H]4[C@@]5(C)CC=C(c6ccc(C(=O)O)cc6)C(C)(C)[C@@H]5CC[C@]43C)[C@@H]12
CC50 (in vitro [2]): 7400 nM

C=C(C)[C@@H]1CC[C@]2(CNCCn3ccnc3)CC[C@]3(C)[C@H](CC[C@@H]4[C@@]5(C)CC=C(c6ccc(C(=O)O)cc6)C(C)(C)[C@@H]5CC[C@]43C)[C@@H]12
CC50 (in vitro [2]): 12000 nM | IC50 (cells): 9.3 nM | AUC(0-t) at 6 h (in vivo [5]): 0.223 µM·h

C=C(C)[C@@H]1CC[C@]2(CNCCN(CC)CC)CC[C@]3(C)[C@H](CC[C@@H]4[C@@]5(C)CC=C(c6ccc(C(=O)O)cc6)C(C)(C)[C@@H]5CC[C@]43C)[C@@H]12
half-life at 0.5 µM (in vitro [1]): > 2 h | CC50 (in vitro [2]): 20000 nM | IC50 (cells): 35 nM | half-life at 0.5 µM (in vitro [3]): > 2 h | half-life at 0.5 µM (in vitro [4]): 1.3 h

C=C(C)[C@@H]1CC[C@]2(CNCCc3ccc(S(N)(=O)=O)cc3)CC[C@]3(C)[C@H](CC[C@@H]4[C@@]5(C)CC=C(c6ccc(C(=O)O)cc6)C(C)(C)[C@@H]5CC[C@]43C)[C@@H]12
CC50 (in vitro [2]): 2400 nM | IC50 (cells): 16 nM | AUC(0-t) at 6 h (in vivo [5]): 0.288 µM·h

C=C(C)[C@@H]1CC[C@]2(CNCCCN(C)c3ccccc3)CC[C@]3(C)[C@H](CC[C@@H]4[C@@]5(C)CC=C(c6ccc(C(=O)O)cc6)C(C)(C)[C@@H]5CC[C@]43C)[C@@H]12
half-life at 0.5 µM (in vitro [1]): > 2 h | CC50 (in vitro [2]): 11000 nM | IC50 (cells): 60 nM | half-life at 0.5 µM (in vitro [3]): > 2 h | AUC(0-t) at 6 h (in vivo [5]): 0.962 µM·h | half-life at 0.5 µM (in vitro [4]): > 2 h

C=C(C)[C@@H]1CC[C@]2(CNCCN3CCS(=O)(=O)CC3)CC[C@]3(C)[C@H](CC[C@@H]4[C@@]5(C)CC=C(c6ccc(C(=O)O)cc6)C(C)(C)[C@@H]5CC[C@]43C)[C@@H]12
half-life at 0.5 µM (in vitro [1]): > 2 h | CC50 (in vitro [2]): 2600 nM | IC50 (cells): 6 nM | half-life at 0.5 µM (in vitro [3]): > 2 h | AUC(0-t) at 6 h (in vivo [5]): 2.05 µM·h | half-life at 0.5 µM (in vitro [4]): 1.8 h

C=C(C)[C@@H]1CC[C@]2(CNCCN3CCN(C)CC3)CC[C@]3(C)[C@H](CC[C@@H]4[C@@]5(C)CC=C(c6ccc(C(=O)O)cc6)C(C)(C)[C@@H]5CC[C@]43C)[C@@H]12
CC50 (in vitro [2]): 970 nM | IC50 (cells): 14 nM

C=C(C)[C@@H]1CC[C@]2(CNCCCN3CCN(C)CC3)CC[C@]3(C)[C@H](CC[C@@H]4[C@@]5(C)CC=C(c6ccc(C(=O)O)cc6)C(C)(C)[C@@H]5CC[C@]43C)[C@@H]12
half-life at 0.5 µM (in vitro [1]): > 2 h | CC50 (in vitro [2]): 700 nM | IC50 (cells): 16 nM | half-life at 0.5 µM (in vitro [3]): > 2 h | half-life at 0.5 µM (in vitro [4]): > 2 h
